Assay results published in patent publication US6713265B1 (Synaptic Pharmaceutical Corporation, priority 1999, dated 2004).

Legend:
human Y2 receptor = biological target: T1, human Y2 receptor (Homo sapiens, UniProt P49146); assay: ^125I-PYY binding to membranes, cloned human Y2 receptor; details: read-out: Binding Affinity Ki vs. ^125I-PYY, Human Receptor Y2; Table 14; stably transfected 293 cells (compound 1 also COS-7)
T1 construct: expressed in transfected cells; host or cells: COS-7 (transient)
T1 sequence (P49146 1-381): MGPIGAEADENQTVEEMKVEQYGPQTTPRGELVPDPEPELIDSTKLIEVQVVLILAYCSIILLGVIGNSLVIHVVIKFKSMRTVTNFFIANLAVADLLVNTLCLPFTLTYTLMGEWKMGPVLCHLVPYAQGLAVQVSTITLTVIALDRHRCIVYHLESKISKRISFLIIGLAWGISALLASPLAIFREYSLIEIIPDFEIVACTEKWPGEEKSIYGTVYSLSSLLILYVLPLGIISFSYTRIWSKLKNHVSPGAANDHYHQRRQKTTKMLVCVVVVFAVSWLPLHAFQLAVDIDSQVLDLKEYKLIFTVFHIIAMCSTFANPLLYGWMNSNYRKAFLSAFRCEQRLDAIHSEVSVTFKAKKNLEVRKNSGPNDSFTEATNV

human Y5 receptor = biological target: T2, human Y5 receptor (Homo sapiens, UniProt Q15761); assay: Radioligand binding to membranes of cells expressing cloned human Y5 receptor; parameters: Ki Values, Human Y5; apparent Kd; pKd; The isolated clone (CG-19) turned out to contain a full length cDNA; The longest open reading frame encodes a 455 amino acid protein; details: read-out: Binding Affinity Ki vs. ^125I-PYY, Human Receptor Y5; Table 14; stably transfected LM(tk-) cells
T2 sequence (Q15761 1-445): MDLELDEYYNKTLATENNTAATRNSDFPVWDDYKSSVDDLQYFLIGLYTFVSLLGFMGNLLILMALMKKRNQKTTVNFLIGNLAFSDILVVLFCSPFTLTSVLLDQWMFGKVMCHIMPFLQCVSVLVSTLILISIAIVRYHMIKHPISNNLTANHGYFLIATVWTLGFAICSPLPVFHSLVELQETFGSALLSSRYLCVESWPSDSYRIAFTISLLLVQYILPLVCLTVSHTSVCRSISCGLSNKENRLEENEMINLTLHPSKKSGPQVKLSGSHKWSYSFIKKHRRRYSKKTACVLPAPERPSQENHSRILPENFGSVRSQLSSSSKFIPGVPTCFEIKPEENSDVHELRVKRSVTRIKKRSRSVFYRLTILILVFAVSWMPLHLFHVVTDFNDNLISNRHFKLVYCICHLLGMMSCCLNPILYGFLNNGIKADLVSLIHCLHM

5HT1Dα = 5HT1Dα (Homo sapiens, UniProt P28221); assay: Binding at cloned human 5HT1Dα receptor
Chain of 5HT1Dα (P28221 whole entry): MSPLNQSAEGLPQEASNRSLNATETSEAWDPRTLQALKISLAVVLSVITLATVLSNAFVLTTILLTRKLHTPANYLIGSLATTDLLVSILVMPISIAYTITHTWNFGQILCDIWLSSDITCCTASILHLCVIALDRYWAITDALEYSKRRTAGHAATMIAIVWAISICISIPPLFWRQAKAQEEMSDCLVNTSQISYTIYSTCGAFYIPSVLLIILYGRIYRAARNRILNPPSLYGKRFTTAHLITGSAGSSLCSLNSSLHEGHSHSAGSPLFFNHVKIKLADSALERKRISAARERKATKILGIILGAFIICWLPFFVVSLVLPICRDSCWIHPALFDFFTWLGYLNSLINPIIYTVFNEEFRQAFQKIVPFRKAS
Method: The cell line for the 5HT1Dα receptor, designated as Ltk-8-30-84, was deposited on Apr. […] The cell for the 5HT1Dβ receptor, designated as Ltk-11, was deposited on Apr. […] Membrane preparations comprising these receptors were prepared as described below, and suspended in 50 mM Tris-HCl buffer (pH 7.4 at 37° C.) containing 10 mM MgCl2, 0.2 mM EDTA, 10 μM pargyline, and 0.1% ascorbate. The binding of compounds was determined in competition binding assays by incubation for 30 minutes at 37° C. in the presence of 5 nM [^3H]serotonin. Nonspecific binding was determined in the presence of 10 μM serotonin.

5HT2 = biological target: T3, 5HT2 (Homo sapiens, UniProt P28223); assay: Binding at cloned human 5HT2 receptor
T3 construct: expressed in transfected cells; host or cells: COS-7 (DEAE-dextran); the same paragraph also names the deposited cell line L-NGC-5HT2 (ATCC CRL 10287)
T3 sequence (P28223 whole entry): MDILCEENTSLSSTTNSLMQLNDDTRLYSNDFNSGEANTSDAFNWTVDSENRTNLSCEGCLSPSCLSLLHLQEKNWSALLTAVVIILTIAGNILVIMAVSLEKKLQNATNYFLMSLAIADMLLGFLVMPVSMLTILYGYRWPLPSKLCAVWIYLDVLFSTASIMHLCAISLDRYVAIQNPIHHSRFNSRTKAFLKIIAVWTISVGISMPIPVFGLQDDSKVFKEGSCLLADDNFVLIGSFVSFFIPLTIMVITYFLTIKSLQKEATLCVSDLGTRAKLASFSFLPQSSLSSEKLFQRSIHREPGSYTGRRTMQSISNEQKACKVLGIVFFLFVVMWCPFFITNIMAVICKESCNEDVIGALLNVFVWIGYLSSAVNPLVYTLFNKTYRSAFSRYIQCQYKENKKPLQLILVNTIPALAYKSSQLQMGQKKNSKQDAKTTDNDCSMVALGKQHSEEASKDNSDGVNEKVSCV
Method: Human 5HT2 Receptor: The coding sequence of the human 5HT2 receptor was obtained from a human brain cortex cDNA library, and cloned into the cloning site of pcEXV-3 eukaryotic expression vector. […] Nonspecific binding was defined by the addition of 10 μM mianserin.

human Y1 receptor = biological target: T4, human Y1 receptor (Homo sapiens, UniProt P25929); assay: ^125I-PYY binding to membranes, cloned human Y1 receptor; details: read-out: Binding Affinity Ki vs. ^125I-PYY, Human Receptor Y1; Table 14; stably transfected 293 cells (compound 1 also COS-7)
T4 construct: expressed in transfected cells; host or cells: COS-7 (transient)
T4 sequence (P25929 1-384): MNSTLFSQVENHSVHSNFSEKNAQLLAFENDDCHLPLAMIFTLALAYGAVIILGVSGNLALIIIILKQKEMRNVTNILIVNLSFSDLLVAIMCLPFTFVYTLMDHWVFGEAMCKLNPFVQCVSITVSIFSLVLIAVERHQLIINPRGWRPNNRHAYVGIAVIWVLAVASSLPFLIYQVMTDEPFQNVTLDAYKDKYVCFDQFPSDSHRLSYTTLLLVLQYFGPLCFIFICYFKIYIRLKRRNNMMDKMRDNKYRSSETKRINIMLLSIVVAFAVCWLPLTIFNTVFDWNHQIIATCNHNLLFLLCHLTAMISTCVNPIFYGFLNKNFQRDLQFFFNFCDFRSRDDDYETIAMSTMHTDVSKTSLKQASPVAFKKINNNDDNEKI

food intake = assay: Food intake in food-deprived rats; type: in vivo, rat; details: 30 mg/kg i.p., after 24h food deprivation
Method: After receipt, the animals are individually housed for the duration of the study and allowed free access to normal food together with tap water. The animals are maintained in a room with a 12 h light/dark cycle (8:00 a.m. to 8:00 p.m. light) at 24° C. and monitored humidity. After placement into individual cages the rats undergo a 4 day equilibration period, during which they are habituated to their new environment and to eating a powdered or pellet diet NAFAG, Gossau, Switzerland).
At the end of the equilibration period, food is removed from the animals for 24 hours starting at 8:00 a.m. At the end of the fasting period compound or vehicle may be administered to the animals orally or by injection intraperitoneally or intravenously. After 10-60 min. food is returned to the animals and their food intake is monitored at various time periods during the following 24 hour period. The food intake of animals treated with test compound may be calculated as a percentage of the food intake of control animals (i.e., animals treated with vehicle). Alternatively, food intake for each group of animals subjected to a particular experimental condition may be expressed as the mean±S.E.M.
Measurements were performed two hours after administration of the test compound.

α1a = biological target: T5, α1a (Homo sapiens, UniProt P35348); assay: Binding at cloned human α1a adrenergic receptor
T5 sequence (P35348 1-466): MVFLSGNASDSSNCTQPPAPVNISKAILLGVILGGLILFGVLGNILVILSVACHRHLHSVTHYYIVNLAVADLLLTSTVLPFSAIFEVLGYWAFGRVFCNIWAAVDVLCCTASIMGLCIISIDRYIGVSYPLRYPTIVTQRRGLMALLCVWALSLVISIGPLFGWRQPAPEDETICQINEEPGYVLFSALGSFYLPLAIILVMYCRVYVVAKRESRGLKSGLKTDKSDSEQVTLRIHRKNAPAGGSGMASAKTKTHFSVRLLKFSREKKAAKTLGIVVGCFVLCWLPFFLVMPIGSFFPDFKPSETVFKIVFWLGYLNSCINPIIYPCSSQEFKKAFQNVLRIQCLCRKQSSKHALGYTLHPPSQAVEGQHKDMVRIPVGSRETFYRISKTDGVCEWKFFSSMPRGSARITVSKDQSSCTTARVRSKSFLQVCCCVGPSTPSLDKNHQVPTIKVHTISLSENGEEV

α2a = biological target: T6, α2a (Homo sapiens, UniProt P08913); assay: Binding at cloned human α2a adrenergic receptor
T6 sequence (P08913 1-465): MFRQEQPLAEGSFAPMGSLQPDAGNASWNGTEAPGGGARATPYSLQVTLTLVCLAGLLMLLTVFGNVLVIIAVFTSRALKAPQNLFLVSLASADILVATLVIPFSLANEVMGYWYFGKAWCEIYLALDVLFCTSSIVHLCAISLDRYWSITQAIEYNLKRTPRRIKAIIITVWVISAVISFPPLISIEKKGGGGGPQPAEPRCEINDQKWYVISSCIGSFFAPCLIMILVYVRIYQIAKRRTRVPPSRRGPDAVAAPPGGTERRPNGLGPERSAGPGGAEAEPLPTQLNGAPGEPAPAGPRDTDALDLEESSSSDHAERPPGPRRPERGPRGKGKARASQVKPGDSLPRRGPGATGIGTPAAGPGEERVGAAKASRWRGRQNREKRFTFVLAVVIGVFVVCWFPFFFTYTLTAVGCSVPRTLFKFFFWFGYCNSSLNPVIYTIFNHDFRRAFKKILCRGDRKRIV

5HT7 = 5HT7 (Homo sapiens, UniProt P34969); assay: Binding at cloned human 5HT7 receptor
Chain of 5HT7 (P34969 1-445 isoform P34969-2): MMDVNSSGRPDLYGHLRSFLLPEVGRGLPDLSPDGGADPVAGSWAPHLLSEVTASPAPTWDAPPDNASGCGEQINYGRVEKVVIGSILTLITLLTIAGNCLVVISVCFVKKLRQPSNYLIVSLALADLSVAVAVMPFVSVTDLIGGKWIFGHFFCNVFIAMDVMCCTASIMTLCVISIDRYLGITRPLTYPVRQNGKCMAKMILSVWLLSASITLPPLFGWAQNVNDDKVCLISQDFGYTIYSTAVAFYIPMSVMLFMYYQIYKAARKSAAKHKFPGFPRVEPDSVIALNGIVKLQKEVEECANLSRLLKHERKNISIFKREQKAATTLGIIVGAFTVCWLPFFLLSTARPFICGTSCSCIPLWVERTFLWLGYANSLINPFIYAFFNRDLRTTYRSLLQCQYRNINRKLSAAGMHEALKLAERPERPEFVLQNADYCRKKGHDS

Cl.Cl.Nc1ccccc1S(=O)(=O)NC[C@H]1CC[C@H](CNCC2CCc3ccccc3C2)CC1 (mixture of isomers) [Compound 22]
Ki (human Y2 receptor): 7.57 µM | Ki (human Y5 receptor): 0.011 µM | pKi 5HT1Dα (5HT1Dα): 5.98 | pKi 5HT2 (5HT2): 5.99 | Ki (human Y1 receptor): 17.2 µM | Two-hour food intake of food-deprived rats, percentage of intake compared to control rats, Mean (food intake): 55% | pKi α1a (α1a): 7.34 | pKi α2a (α2a): 7.05 | pKi 5HT7 (5HT7): 6.39

Cl.O=S(=O)(NC[C@H]1CC[C@H](CNCC2CCc3ccccc3C2)CC1)c1cccc2ccccc12 (mixture of isomers) [Compound 19]
Ki (human Y2 receptor): 0.955 µM | Ki (human Y5 receptor): 0.011 µM | pKi 5HT1Dα (5HT1Dα): 6.04 | pKi 5HT2 (5HT2): 6.55 | Ki (human Y1 receptor): 3.55 µM | Two-hour food intake of food-deprived rats, percentage of intake compared to control rats, Mean (food intake): 36% | pKi α1a (α1a): 7.47 | pKi α2a (α2a): 6.74 | pKi 5HT7 (5HT7): 6.42

Cl.O=[N+]([O-])c1ccccc1S(=O)(=O)NC[C@H]1CC[C@H](CNCC2CCc3ccccc3C2)CC1 (mixture of isomers) [Compound 20]
Ki (human Y2 receptor): 7.76 µM | Ki (human Y5 receptor): 0.0083 µM | pKi 5HT1Dα (5HT1Dα): 5.94 | pKi 5HT2 (5HT2): 5.93 | Ki (human Y1 receptor): 16 µM | Two-hour food intake of food-deprived rats, percentage of intake compared to control rats, Mean (food intake): 35% | pKi α1a (α1a): 7.72 | pKi α2a (α2a): 7.31 | pKi 5HT7 (5HT7): 6.37
